Consider two molecules from ChEMBL document CHEMBL6083184, “Small molecule agents against alopecia: Potential targets and related pathways” (Eur J Med Chem, 2024).

Experiment [1] can be described thus: Inhibition of MPC (unknown origin). More on the design: species or system Homo sapiens.
Experiment [2] concerns the target Mothers against decapentaplegic homolog 2 (Homo sapiens, UniProt Q15796). The experiment in a line: Inhibition of SMAD2 (unknown origin).

As a reminder, the IC50 is the concentration at which inhibition is half-maximal. Higher therefore signals weaker potency in that assay.

Each structure is given as a SMILES string.

Sequence of Mothers against decapentaplegic homolog 2 (Q15796 whole entry): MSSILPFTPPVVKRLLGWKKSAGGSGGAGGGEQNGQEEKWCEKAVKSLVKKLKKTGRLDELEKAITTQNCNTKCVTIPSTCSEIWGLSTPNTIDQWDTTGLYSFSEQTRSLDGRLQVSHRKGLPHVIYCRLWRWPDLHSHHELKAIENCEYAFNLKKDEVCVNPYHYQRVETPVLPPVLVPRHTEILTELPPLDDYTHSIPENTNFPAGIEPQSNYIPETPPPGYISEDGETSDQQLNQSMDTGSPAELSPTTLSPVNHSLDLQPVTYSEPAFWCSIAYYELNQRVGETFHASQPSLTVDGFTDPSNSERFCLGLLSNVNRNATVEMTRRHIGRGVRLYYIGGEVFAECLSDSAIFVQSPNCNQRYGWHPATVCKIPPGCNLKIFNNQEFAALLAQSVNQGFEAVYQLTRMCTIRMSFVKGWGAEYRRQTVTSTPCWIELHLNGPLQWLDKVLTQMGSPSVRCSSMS

Turning to `N#C/C(=C\c1cn(-c2ccccc2)c2ccccc12)C(=O)O`, the IC50 in experiment [1] is 0.0166 µM.

In experiment [2], `Cc1csc(-c2nc[nH]c2-c2ccc3ncsc3c2)n1` displayed an IC50 of 0.0087 µM.
